Laboratory results published in patent US20160207930A1 (LEO PHARMA A/S, priority 2013, published 2016).

Tests used:
[1] = Hepatic intrinsic clearance following incubation in human liver microsomes; assay type: in vitro ADME; conditions: 0.5 μM test compound, NADPH, 0-30 min, scaled to g liver
Method: Hepatic Extraction Ratio from Hepatic Intrinsic Clearance Following Incubation in Human Liver Microsomes
The general procedure consists of an automated incubation system and LC-MS/MS analysis with human liver microsomes. Human liver microsomes are thawed rapidly in a waterbath at 37° C. and kept on ice until use. The human liver microsomes are diluted with 50 mM potassium phosphate buffer pH 7.4 to a protein concentration of 0.55 mg/mL. Test compounds and positive controls (Verapamil and Dextromethorphan, positive controls for CYP3A4 for CYP2D6 isoforms, respectively) are dissolved in methanol (or other appropriate solvent, if necessary) in order to obtain a 5 mM solution which is further diluted to the concentration of 50 μM. The stock solutions are prepared immediately before the test.
5 μL of 50 μM test compounds and controls are added to 445 μL-of the 0.55 mg/mL microsomes solution and the incubation mixture are pre-warmed at 37° C. for 5 minutes. The incubation reactions are initiated by adding 50 μL of pre-warmed NADPH regenerating system to the incubation mixtures. 50 μL-aliquots will be taken from the incubation mixtures at: 0, 3, 6, 9, 15 and 30 minutes and the reactions are stopped by adding 100 μL of ACN containing Rolipram, used as generic Internal Standard (IS). Samples are then diluted with 120 μL of Milli-Q water and centrifuged at 3000 rpm for 10 minutes, prior the LC-MS/MS analysis.
The integrated peak areas for test compounds at the selected time points are divided by the respective peak areas of the IS and the percent of parent remaining is calculated by normalizing the peak area ratio of parent to IS at 0 min. Observed rate constant (kobs) for parent degradation is calculated by determining the slope of the line of the graph of the natural log of percentage parent remaining versus time of incubation. From the rate of depletion (min−1) and volume of the incubation (mL), clearance is estimated. This is scaled for the protein in the incubation relative to that in the intact liver, for all species (mL/min/g liver).
Values for the Human in vitro Clint are expressed as mL/min/g liver.
Assuming a liver weight of 25.7 g/kg and a liver blood flow of 20.7 mL/min/kg, the hepatic extraction ratio, Eh, can be derived from the Human in vitro Clint:
E.g. a Human in vitro Clint of 2.4 mL/min/g liver corresponds to a hepatic extraction ratio of 75%.
Some compounds of the present invention were tested according to example 101.

NK1 Receptor = molecular target: T1, NK1 Receptor (Homo sapiens, UniProt P25103); assay: NK1 receptor mediated intracellular [Ca2+] mobilization in U251 MG cells using FLIPR; assay type: cell-based; conditions: antagonism of Substance P (EC80), Fluo-4, read-out: NK1R mediated intracellular [Ca^2+] mobilization IC 50
T1 construct: Measurement of NK1 Receptor Mediated Intracellular [Ca^2+]; Mobilization in U251 MG Cells Using FLIPR; endogenous in cells; host or cells: U251 MG cells
T1 sequence (P25103 whole entry): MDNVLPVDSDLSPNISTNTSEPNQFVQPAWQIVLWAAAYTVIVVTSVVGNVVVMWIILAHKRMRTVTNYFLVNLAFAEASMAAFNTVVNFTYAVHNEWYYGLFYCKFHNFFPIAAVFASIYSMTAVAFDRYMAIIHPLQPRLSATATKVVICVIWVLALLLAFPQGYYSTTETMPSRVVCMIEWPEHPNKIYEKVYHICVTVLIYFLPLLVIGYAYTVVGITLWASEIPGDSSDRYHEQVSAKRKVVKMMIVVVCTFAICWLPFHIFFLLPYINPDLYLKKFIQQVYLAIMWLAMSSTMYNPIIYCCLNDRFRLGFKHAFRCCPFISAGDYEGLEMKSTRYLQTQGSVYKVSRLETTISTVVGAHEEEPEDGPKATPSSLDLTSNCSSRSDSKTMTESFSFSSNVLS
Method: Measurement of NK1 Receptor Mediated Intracellular [Ca^2+] Mobilization in U251 MG Cells Using FLIPR
U251 MG cells were seeded into black walled clear-bottom 384-well plates (Greiner Bio-One GmbH, Frickenhausen, Germany) at a density of 15,000 cells/well in 50 μl culture medium and cultured overnight in a 37° C. 5% CO2 incubator. The cells were then loaded with the calcium sensitive dye Fluo-4 (Invitrogen) at 1 μM in buffer, containing 0.04% Pluronic F-127 (Sigma-Aldrich), and 2.5 mM probenecid (Sigma-Aldrich) for 60 min in a humidified atmosphere of 5% CO2. Thereafter, cells were washed three times in washing buffer containing 20 mM HEPES and 2.5 mM probenecid pH 7.3. Serial dilutions of test compounds in assay buffer containing 2% dimethyl sulfoxide (final concentration in the cell plate is 0.5% DMSO) and/or agonist were then automatically pipetted into each test well, and the peak fluorescence intensity was recorded (lex, 488 nm; lem, 540 nm) by the FLIPR instrument (Molecular Devices) for approximately 5 min. To measure antagonist potency, cell plates were first incubated with the test compound and intracellular fluorescence recorded for 5 minutes to check a potential agonist effect of the test compound. Cell plates were quickly removed from the FLIPR instrument and incubated for additional 10 minutes at 37° C. before being moved back to the FLIPR instrument for Substance P (EC80) addition. The response was measured as the peak relative fluorescence change after agonist addition.
Compound relative %-effect was normalized to the maximal response evoked by 100 nM Aprepitant in presence of the EC80 of Substance P and the antagonist potency determined by non-linear regression using GraphPad Prism (version 5) or the four-parameter logistic model in XLfit (IDBS, Guilford, UK) for Microsoft Excel (Microsoft, Redmond, Wash.). The IC50 value is defined as the molar concentration of a test compound that produces a response midway between the fitted top and the fitted bottom. pIC50=−log IC50
Formula is listed as follows:
Fit (% Effect calculated)=(A+((B−A)/(1+((C/X)̂D)))) • A: bottom value • B: top value • C: test compound concentration • X: Relative IC50 • D: Hill slope coefficient
Ref: Sullivan E, Tucker E M, and Dale I L. Measurement of [Ca^2+] using the Fluorometric Imaging Plate Reader (FLIPR). Methods Mol Biol 114:125-133, 1999.
Compounds of the present invention were tested according to example 100.

Row | Structure (SMILES) | Human in vitro Clint [1] | IC50 (NK1 Receptor)
1 | CCc1ccccc1[C@H]1[C@@H]2CCC(=O)N2CCN1C(=O)N(C)[C@H](C)c1cc(C(F)(F)F)cc(C(F)(F)F)c1 (single isomer, unassigned) [Compound 69] | >200 mL/min/g | 11000 pM
2 | CCc1cc([C@@H](C)N(C)C(=O)N2CCN3C(=O)CC[C@H]3[C@@H]2c2ccccc2CC)cc(C(F)(F)F)c1 (single isomer, unassigned) [Compound 70] | >200 mL/min/g | 940 pM
3 | CCc1cc([C@@H](C)N(C)C(=O)N2CCN3C(=O)CC[C@H]3[C@@H]2c2ccccc2CC)cc(C(F)(F)F)c1 (single isomer, unassigned) [Compound 71] | >200 mL/min/g | 49000 pM
4 | CCc1cc([C@@H](C)N(C)C(=O)N2CCN3C(=O)C(CCO)(CCO)CC3C2c2ccc(OC)cc2C)cc(C(F)(F)F)c1 (some centres unmarked) [Compound 16] | >200 mL/min/g | 243 pM
5 | COc1ccc([C@H]2[C@@H]3CC(CCO)(CCO)C(=O)N3CCN2C(=O)N(C)[C@H](C)c2cc(C)cc(C(F)(F)F)c2)c(C)c1 [Compound 17, (1S,8aS)-7,7-bis(2-hydroxyethyl)-1-(4-methoxy-2-methylphenyl)-N-methyl-N—((R)-1-(3-methyl-5-(trifluoromethyl)phenyl)ethyl)-6-oxohexahydropyrrolo[1,2-a]pyrazine-2(1H)-carboxamide] | >200 mL/min/g | 799 pM
6 | Cc1cc(F)ccc1[C@H]1[C@@H]2CCC(=O)N2CCN1C(=O)N(C)[C@H](C)c1cc(C(F)(F)F)cc(C(F)(F)F)c1 [Compound 20, (1S,8aS)—N—((R)-1-(3,5-bis(trifluoromethyl)phenyl)ethyl)-1-(4-fluoro-2-methylphenyl)-N-methyl-6-oxohexahydropyrrolo[1,2-a]pyrazine-2(1H)-carboxamide] | 40 mL/min/g | 137 pM
7 | Cc1cc([C@@H](C)N(C)C(=O)N2CCN3C(=O)CC[C@H]3[C@@H]2c2ccc(F)cc2C)cc(C(F)(F)F)c1 [Compound 21, (1S,8aS)-1-(4-fluoro-2-methylphenyl)-N-methyl-N—((R)-1-(3-methyl-5-(trifluoromethyl)phenyl)ethyl)-6-oxohexahydropyrrolo[1,2-a]pyrazine-2(1H)-carboxamide] | 36 mL/min/g | 83 pM
8 | Cc1cc(F)ccc1[C@H]1[C@@H]2CCC(=O)N2CCN1C(=O)N(C)[C@H](C)c1cc(C(C)C)cc(C(F)(F)F)c1 [Compound 22, (1S,8aS)-1-(4-fluoro-2-methylphenyl)-N-(1-(3-isopropyl-5-(trifluoromethyl)phenyl)ethyl)-N-methyl-6-oxohexahydropyrrolo[1,2-a]pyrazine-2(1H)-carboxamide] | >200 mL/min/g | 197 pM
9 | CCc1cc([C@@H](C)N(C)C(=O)N2CCN3C(=O)CC[C@H]3[C@@H]2c2ccc(F)cc2C)cc(C(F)(F)F)c1 [Compound 23, (1S,8aS)—N—((R)-1-(3-ethyl-5-(trifluoromethyl)phenyl)ethyl)-1-(4-fluoro-2-methylphenyl)-N-methyl-6-oxohexahydropyrrolo[1,2-a]pyrazine-2(1H)-carboxamide] | 78 mL/min/g | 37 pM
10 | CCc1cc([C@@H](C)N(C)C(=O)N2CCN3C(=O)C(CCO)(CCO)C[C@H]3[C@@H]2c2ccc(F)cc2C)cc(C(F)(F)F)c1 [Compound 24, (1S,8aS)—N—((R)-1-(3-ethyl-5-(trifluoromethyl)phenyl)ethyl)-1-(4-fluoro-2-methylphenyl)-7,7-bis(2-hydroxyethyl)-N-methyl-6-oxohexahydropyrrolo[1,2-a]pyrazine-2(1H)-carboxamide] | >200 mL/min/g | 80 pM
11 | Cc1cc(F)ccc1[C@H]1[C@@H]2CC(CCO)(CCO)C(=O)N2CCN1C(=O)N(C)[C@H](C)c1cc(C(C)C)cc(C(F)(F)F)c1 [Compound 25, (1S,8aS)-1-(4-fluoro-2-methylphenyl)-7,7-bis(2-hydroxyethyl)-N—((R)-1-(3-isopropyl-5-(trifluoromethyl)phenyl)ethyl)-N-methyl-6-oxohexahydropyrrolo[1,2-a]pyrazine-2(1H)-carboxamide] | 128 mL/min/g | 80 pM
12 | Cc1cc(OCc2ccccc2)ccc1[C@H]1[C@@H]2CCC(=O)N2CCN1C(=O)N(C)[C@H](C)c1cc(C(F)(F)F)cc(C(F)(F)F)c1 [Compound 26, (1S,8aS)-1-(4-(benzyloxy)-2-methylphenyl)-N—((R)-1-(3,5-bis(trifluoromethyl)phenyl)ethyl)-N-methyl-6-oxohexahydropyrrolo[1,2-a]pyrazine-2(1H)-carboxamide] | >200 mL/min/g | 7360 pM
13 | Cc1cc(O)ccc1[C@H]1[C@@H]2CCC(=O)N2CCN1C(=O)N(C)[C@H](C)c1cc(C(F)(F)F)cc(C(F)(F)F)c1 [Compound 27, (1S,8aS)—N—((R)-1-(3,5-bis(trifluoromethyl)phenyl)ethyl)-1-(4-hydroxy-2-methylphenyl)-N-methyl-6-oxohexahydropyrrolo[1,2-a]pyrazine-2(1H)-carboxamide] | >200 mL/min/g | 64 pM
14 | CCc1cc([C@@H](C)N(C)C(=O)N2CCN3C(=O)CC[C@H]3[C@@H]2c2ccc(O)cc2C)cc(C(F)(F)F)c1 [Compound 28, (1S,8aS)—N—((R)-1-(3-ethyl-5-(trifluoromethyl)phenyl)ethyl)-1-(4-hydroxy-2-methylphenyl)-N-methyl-6-oxohexahydropyrrolo[1,2-a]pyrazine-2(1H)-carboxamide] | >200 mL/min/g | 110 pM
15 | COc1ccc([C@H]2[C@@H]3CC(CCO)(CCO)C(=O)N3CCN2C(=O)N(C)[C@H](C)c2cc(C(F)(F)F)cc(C(F)(F)F)c2)c(C)c1 [Compound 29, (1S,8aS)—N—((R)-1-(3,5-bis(trifluoromethyl)phenyl)ethyl)-7,7-bis(2-hydroxyethyl)-1-(4-methoxy-2-methylphenyl)-N-methyl-6-oxohexahydropyrrolo[1,2-a]pyrazine-2(1H)-carboxamide] | >200 mL/min/g | 114 pM
16 | Cc1cc(O)ccc1[C@H]1[C@@H]2CC(CCO)(CCO)C(=O)N2CCN1C(=O)N(C)[C@H](C)c1cc(C(F)(F)F)cc(C(F)(F)F)c1 [Compound 30, (1S,8aS)—N—((R)-1-(3,5-bis(trifluoromethyl)phenyl)ethyl)-1-(4-hydroxy-2-methylphenyl)-7,7-bis(2-hydroxyethyl)-N-methyl-6-oxo-hexahydropyrrolo[1,2-a]pyrazine-2(1H)-carboxamide] | 18 mL/min/g | 116 pM
